Laboratory results published in patent US20250346597A1, “CONDENSED HETEROCYCLIC COMPOUNDS AS INHIBITOR OF DIACYLGLYCEROL KINASES” (BEONE MEDICINES I GMBH, priority 2023, published 2025).

Columns and labels:
DGKζ = DGKζ (Homo sapiens (Human), UniProt Q13574); test: Biochemical DGK IC50 assay (ADP-Glo, lipid micelle substrate), DGKζ; conditions: full length DGKζ 0.5 nM, ATP 140 μM, DAG 80 μM
How it was run: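 Full-length human His-TEV-tagged DGKζ, expressed in Sf9 cells and purified, was run at room temperature on DAG/PS lipid micelles in 50 mM HEPES, 10 mM MgCl2, 0.01 mM CaCl2 buffer. After 1 h reaction, ADP formed was detected by ADP-Glo luminescence. IC50s came from inhibition across increasing compound concentrations.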

DGKα = DGKα (Homo sapiens (Human), UniProt P23743); test: Biochemical DGK IC50 assay (ADP-Glo, lipid micelle substrate), DGKα; conditions: full length DGKα […], ATP 140 μM, DAG 80 μM; also: full length DGKα 7.5 nM
Chain of DGKα (P23743 whole entry): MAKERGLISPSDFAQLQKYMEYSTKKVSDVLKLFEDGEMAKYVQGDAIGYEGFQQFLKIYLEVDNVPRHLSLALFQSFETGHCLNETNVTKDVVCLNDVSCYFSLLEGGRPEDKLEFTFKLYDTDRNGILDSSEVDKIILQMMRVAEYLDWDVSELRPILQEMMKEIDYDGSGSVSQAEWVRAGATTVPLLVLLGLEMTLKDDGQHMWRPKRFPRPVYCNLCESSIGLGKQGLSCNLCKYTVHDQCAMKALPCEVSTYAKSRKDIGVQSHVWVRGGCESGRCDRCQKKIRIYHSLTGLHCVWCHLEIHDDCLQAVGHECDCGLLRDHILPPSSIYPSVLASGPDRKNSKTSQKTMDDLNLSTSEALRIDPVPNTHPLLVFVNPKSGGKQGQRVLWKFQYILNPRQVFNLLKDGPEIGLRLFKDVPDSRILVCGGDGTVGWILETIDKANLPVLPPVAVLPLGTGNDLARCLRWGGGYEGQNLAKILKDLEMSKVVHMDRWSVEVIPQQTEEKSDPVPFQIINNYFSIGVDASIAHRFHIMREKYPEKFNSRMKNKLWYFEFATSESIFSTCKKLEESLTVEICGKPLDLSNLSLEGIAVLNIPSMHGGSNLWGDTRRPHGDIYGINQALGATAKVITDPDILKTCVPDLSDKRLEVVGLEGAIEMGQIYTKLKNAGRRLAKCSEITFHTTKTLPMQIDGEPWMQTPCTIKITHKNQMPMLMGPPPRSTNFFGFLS
How it was run: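 Full-length human DGKα assayed by ADP-Glo with DAG/PS lipid micelle substrate at room temperature in 50 mM HEPES, 10 mM MgCl2, 0.01% BSA, 0.1 mM Na3VO4, 0.005% Tween-20, 0.01 mM CaCl2.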

Chain of DGKζ (Q13574 other isoform, or with tags, fused parts or gaps): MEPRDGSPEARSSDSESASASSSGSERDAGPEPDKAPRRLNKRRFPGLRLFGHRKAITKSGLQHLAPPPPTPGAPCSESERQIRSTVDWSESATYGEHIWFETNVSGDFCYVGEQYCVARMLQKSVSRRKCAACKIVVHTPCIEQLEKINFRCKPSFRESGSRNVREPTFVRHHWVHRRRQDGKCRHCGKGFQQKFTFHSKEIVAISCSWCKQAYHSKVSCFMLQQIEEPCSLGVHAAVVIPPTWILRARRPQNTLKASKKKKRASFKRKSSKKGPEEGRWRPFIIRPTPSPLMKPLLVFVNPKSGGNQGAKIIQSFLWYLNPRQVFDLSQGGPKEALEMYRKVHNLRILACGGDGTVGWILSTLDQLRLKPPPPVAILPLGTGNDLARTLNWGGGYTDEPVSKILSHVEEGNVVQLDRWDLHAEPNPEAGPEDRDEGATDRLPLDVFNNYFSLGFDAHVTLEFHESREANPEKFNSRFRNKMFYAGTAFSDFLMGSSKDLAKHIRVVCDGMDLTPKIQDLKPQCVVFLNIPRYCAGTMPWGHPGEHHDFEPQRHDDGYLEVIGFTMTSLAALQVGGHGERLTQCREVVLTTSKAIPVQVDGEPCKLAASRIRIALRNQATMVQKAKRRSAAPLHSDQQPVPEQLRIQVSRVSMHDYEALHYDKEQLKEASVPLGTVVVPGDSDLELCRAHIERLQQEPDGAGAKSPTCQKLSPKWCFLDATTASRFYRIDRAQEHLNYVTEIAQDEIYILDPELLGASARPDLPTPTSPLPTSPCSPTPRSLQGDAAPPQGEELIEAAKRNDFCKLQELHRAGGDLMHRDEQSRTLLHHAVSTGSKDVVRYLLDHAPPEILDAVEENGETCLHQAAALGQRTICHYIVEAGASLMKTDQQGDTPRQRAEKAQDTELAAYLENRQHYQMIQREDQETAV

Row | SMILES | IC50 (DGKζ) [nM] | IC50 (DGKα) [nM]
1 | CC[C@H]1CN(C(C)c2ccn3ncc(F)c3c2)[C@H](CC)CN1c1cc(=O)n(C)c2cn(CC#N)nc12 (single isomer, unassigned) [Compound A165b] | 1580 | 2440
2 | CC[C@@H]1CN(c2cc(=O)n(C)c3cn(CC#N)nc23)[C@@H](C)CN1C(C)c1ccn2nccc2n1 (single isomer, unassigned) [Compound A166a] | 227 | 93
3 | CC[C@@H]1CN(c2cc(=O)n(C)c3cn(CC#N)nc23)[C@@H](C)CN1C(C)c1ccn2nccc2n1 (single isomer, unassigned) [Compound A166b] | > 10000 | 1630
4 | CC[C@H]1CN(C(C)c2ccc3ncc(Cl)n3n2)[C@H](CC)CN1c1cc(=O)n(C)c2cn(CC#N)nc12 (single isomer, unassigned) [Compound A167a] | > 10000 | > 10000
5 | CC[C@H]1CN(C(C)c2ccc3ncc(Cl)n3n2)[C@H](CC)CN1c1cc(=O)n(C)c2cn(CC#N)nc12 (single isomer, unassigned) [Compound A167b] | 23 | 219
6 | CC[C@H]1CN(C(C)c2ccc3ncc(F)n3n2)[C@H](CC)CN1c1cc(=O)n(C)c2cn(CC#N)nc12 (single isomer, unassigned) [Compound A168a] | 3600 | 3410
7 | CC[C@H]1CN(C(C)c2ccc3ncc(F)n3n2)[C@H](CC)CN1c1cc(=O)n(C)c2cn(CC#N)nc12 (single isomer, unassigned) [Compound A168b] | 69 | 54
8 | CC[C@H]1CN(C(C)c2ccn3nc(C)c(F)c3c2)[C@H](CC)CN1c1cc(=O)n(C)c2cn(CC#N)nc12 (single isomer, unassigned) [Compound A169a] | 211 | 3210
9 | CC[C@H]1CN(C(C)c2ccn3nc(C)c(F)c3c2)[C@H](CC)CN1c1cc(=O)n(C)c2cn(CC#N)nc12 (single isomer, unassigned) [Compound A169b] | 9280 | > 10000
10 | CC[C@H]1CN(C(C)c2ccn3nc(C)c(F)c3n2)[C@H](CC)CN1c1nc(=O)n(C)c2cn(CC#N)nc12 (single isomer, unassigned) [Compound A170a] | > 10000 | > 10000
11 | CC[C@H]1CN(C(C)c2ccn3nc(C)c(F)c3n2)[C@H](CC)CN1c1nc(=O)n(C)c2cn(CC#N)nc12 (single isomer, unassigned) [Compound A170b] | 52.5 | 109
12 | CCC(c1ccn2nc(C)cc2n1)N1C[C@H](C)N(c2cc(=O)n(C)c3cn(CC#N)nc23)C[C@H]1CC (single isomer, unassigned) [Compound A171a] | 116 | 107
13 | CCC(c1ccn2nc(C)cc2n1)N1C[C@H](C)N(c2cc(=O)n(C)c3cn(CC#N)nc23)C[C@H]1CC (single isomer, unassigned) [Compound A171b] | 5430 | 2690
14 | CC[C@@H]1CN(c2cc(=O)n(C)c3cn(CC#N)nc23)[C@@H](C)CN1C(C)c1ccn2nc(C)cc2n1 (single isomer, unassigned) [Compound A172a] | 108 | 158
15 | CC[C@@H]1CN(c2cc(=O)n(C)c3cn(CC#N)nc23)[C@@H](C)CN1C(C)c1ccn2nc(C)cc2n1 (single isomer, unassigned) [Compound A172b] | > 10000 | 7830
16 | CC[C@@H]1CN(c2cc(=O)n(C)c3cn(CC#N)nc23)[C@@H](C)CN1[C@@H](C)c1ccn2nc(C)c(F)c2n1 (single isomer, unassigned) [Compound A173a] | 19 | 168
17 | CC[C@@H]1CN(c2cc(=O)n(C)c3cn(CC#N)nc23)[C@@H](C)CN1[C@H](C)c1ccn2nc(C)c(F)c2n1 (single isomer, unassigned) [Compound A173b] | 2950 | > 10000
18 | CC[C@H]1CN(C(C)c2ccc3ncc(Cl)n3n2)[C@H](CC)CN1c1nc(=O)n(C)c2cn(CC#N)nc12 (single isomer, unassigned) [Compound A174a] | 8850 | 6470
19 | CC[C@H]1CN(C(C)c2ccc3ncc(Cl)n3n2)[C@H](CC)CN1c1nc(=O)n(C)c2cn(CC#N)nc12 (single isomer, unassigned) [Compound A174b] | 8.9 | 53
20 | CC(c1cc2c(cc1F)OCC(C)(C)O2)N1C[C@H](C)N(c2cc(=O)n(C)c3cn(CC#N)nc23)C[C@H]1C (single isomer, unassigned) [Compound A179a] | 1410 | 15900

Row | SMILES | IC50 (DGKζ) [nM] | IC50 (DGKα) [nM]
21 | CC(c1cc2c(cc1F)OCC(C)(C)O2)N1C[C@H](C)N(c2cc(=O)n(C)c3cn(CC#N)nc23)C[C@H]1C (single isomer, unassigned) [Compound A179b] | 323 | 3190
22 | CC[C@H]1CN(C(C)c2ccc3cnncc3c2)[C@H](CC)CN1c1cc(=O)n(C)c2cn(CC#N)nc12 (single isomer, unassigned) [Compound A186a] | 841 | 53
23 | CC[C@H]1CN(C(C)c2ccc3cnncc3c2)[C@H](CC)CN1c1cc(=O)n(C)c2cn(CC#N)nc12 (single isomer, unassigned) [Compound A186b] | > 10000 | 1220
24 | CC[C@H]1CN(C(C)c2ccc(N)nc2)[C@H](CC)CN1c1cc(=O)n(C)c2cn(CC#N)nc12 (single isomer, unassigned) [Compound A187a] | > 10000 | 1990
25 | CC[C@H]1CN(C(C)c2ccc(CN3CCC(OC)CC3)cc2)[C@H](CC)CN1c1cc(=O)n(C)c2cn(CC#N)nc12 (single isomer, unassigned) [Compound A189a] | 2190 | 1080
26 | CC[C@H]1CN(C(C)c2ccc(CN3CCC(OC)CC3)cc2)[C@H](CC)CN1c1cc(=O)n(C)c2cn(CC#N)nc12 (single isomer, unassigned) [Compound A189b] | 8540 | 11800
27 | CC[C@H]1CN(C(C)c2ccc(C(=O)NC)cc2)[C@H](CC)CN1c1cc(=O)n(C)c2cn(CC#N)nc12 (single isomer, unassigned) [Compound A193a] | 2870 | 515
28 | CC[C@H]1CN(C(C)c2ccc(C(=O)NC)cc2)[C@H](CC)CN1c1cc(=O)n(C)c2cn(CC#N)nc12 (single isomer, unassigned) [Compound A193b] | > 10000 | 6510
29 | CC[C@H]1CN(C(C)c2ccc(C(=O)N3CCC(OC)CC3)cc2)[C@H](CC)CN1c1cc(=O)n(C)c2cn(CC#N)nc12 (single isomer, unassigned) [Compound A194a] | 1450 | 291
30 | CC[C@H]1CN(C(C)c2ccc(C(=O)N3CCC(OC)CC3)cc2)[C@H](CC)CN1c1cc(=O)n(C)c2cn(CC#N)nc12 (single isomer, unassigned) [Compound A194b] | 6050 | 2530
31 | CC[C@H]1CN(C(C)c2ccc(C(=O)N(C)CCOC)cc2)[C@H](CC)CN1c1cc(=O)n(C)c2cn(CC#N)nc12 (single isomer, unassigned) [Compound A195a] | 1410 | 774
32 | CC[C@H]1CN(C(C)c2ccc(C(=O)N(C)CCOC)cc2)[C@H](CC)CN1c1cc(=O)n(C)c2cn(CC#N)nc12 (single isomer, unassigned) [Compound A195b] | > 10000 | 4210
33 | CC[C@H]1CN(C(C)c2ccc(CN3CCC(OC)C3)cc2)[C@H](CC)CN1c1cc(=O)n(C)c2cn(CC#N)nc12 (single isomer, unassigned) [Compound A203a] | 2690 | 1110
34 | CC[C@H]1CN(C(C)c2ccc(CN3CCC(OC)C3)cc2)[C@H](CC)CN1c1cc(=O)n(C)c2cn(CC#N)nc12 (single isomer, unassigned) [Compound A203b] | 7610 | 11600
35 | CC[C@H]1CN(C(C)c2ccc3c(C)cnn3c2)[C@H](CC)CN1c1cc(=O)n(C)c2cn(CC#N)nc12 (single isomer, unassigned) [Compound A204a] | 31 | 467
36 | CC[C@H]1CN(C(C)c2ccc3c(C)cnn3c2)[C@H](CC)CN1c1cc(=O)n(C)c2cn(CC#N)nc12 (single isomer, unassigned) [Compound A204b] | 971 | 7300
37 | CC#CCn1cc2c(n1)c(N1C[C@@H](CC)N(C(C)c3cnc4ccccc4n3)C[C@@H]1CC)cc(=O)n2C (single isomer, unassigned) [Compound A206a] | 8300 | 480
38 | CC#CCn1cc2c(n1)c(N1C[C@@H](CC)N(C(C)c3cnc4ccccc4n3)C[C@@H]1CC)cc(=O)n2C (single isomer, unassigned) [Compound A206b] | 103 | 25
39 | CC[C@H]1CN(C(C)c2cc(F)c(CN3CCS(=O)(=O)CC3)c(F)c2)[C@H](CC)CN1c1cc(=O)n(C)c2cn(CC#N)nc12 (stereo partly drawn) [Compound A5, 2-(7-((2S,5R)-4-(1-(4-((1,1-dioxidothiomorpholino)methyl)-3,5-difluorophenyl)ethyl)-2,5-diethylpiperazin-1-yl)-4-methyl-5-oxo-4,5-dihydro-2H-pyrazolo[4,3-b]pyridin-2-yl)acetonitrile] | 73 | 497
40 | CC[C@H]1CN(C(C)c2ccc(C)cc2C)[C@H](CC)CN1c1cc(=O)n(C)c2cn(CC#N)nc12 (stereo partly drawn) [Compound A6, 2-(7-((2S,5R)-4-(1-(2,4-dimethylphenyl)ethyl)-2,5-diethylpiperazin-1-yl)-4-methyl-5-oxo-4,5-dihydro-2H-pyrazolo[4,3-b]pyridin-2-yl)acetonitrile] | 219 | 8530
